Results reported in patent US20070161637A1, “Substituted pyridin-2-ylamine analogues” (Neurogen Corporation, priority 2003, published 2007).

Assays:
human capsaicin receptor [1] = target: T1, human capsaicin receptor (Homo sapiens, UniProt Q8NER1); experiment: Calcium mobilization assay, determination of antagonist activity (Example 6); assay type: cell-based; details: concentration giving 50% decrease in the fluorescence response of cells expressing human capsaicin receptor exposed to capsaicin
T1 construct: transfected with the pBK-CMV expression construct encoding the full length human capsaicin receptor; expressed in transfected cells; host or cells: HEK293, stably transfected clonal lines, plasmid pBK-CMV
Method: A cDNA encoding full length human capsaicin receptor (SEQ ID NO:1, 2 or 3 of U.S. Pat. No. 6,482,611) was subcloned in the plasmid pBK-CMV (Stratagene, La Jolla, Calif.) for recombinant expression in mammalian cells.
Human embryonic kidney (HEK293) cells were transfected with the pBK-CMV expression construct encoding the full length human capsaicin receptor using standard methods. The transfected cells were selected for two weeks in media containing G418 (400 μg/ml) to obtain a pool of stably transfected cells. Independent clones were isolated from this pool by limiting dilution to obtain clonal stable cell lines for use in subsequent experiments.
(§1) Cells transfected with expression plasmids (as described in Example 4) and thereby expressing human capsaicin receptor are seeded and grown to 70-90% confluency in FALCON black-walled, clear-bottomed 96-well plates (#3904, BECTON-DICKINSON, Franklin Lakes, N.J.). The culture medium is emptied from the 96 well plates and FLUO-3 AM calcium sensitive dye (Molecular Probes, Eugene, Oreg.) is added to each well (dye solution: 1 mg FLUO-3 AM, 440 μL DMSO and 440 μl 20% pluronic acid in DMSO, diluted 1:250 in Krebs-Ringer HEPES (KRH) buffer (25 mM HEPES, 5 mM KCl, 0.96 mM NaH2PO4, 1 mM MgSO4, 2 mM CaCl2, 5 mM glucose, 1 mM probenecid, pH 7.4), 50 μl diluted solution per well). Plates are covered with aluminum foil and incubated at 37° C. for 1-2 hours in an environment containing 5% CO2. After the incubation, the dye is emptied from the plates, and the cells are washed once with KRH buffer, and resuspended in KRH buffer.
To measure the ability of a test compound to agonize or antagonize a calcium mobilization response in cells expressing capsaicin receptors to capsaicin or other vanilloid agonist, the EC50 of the agonist capsaicin is first determined. An additional 20 μl of KRH buffer and 1 μl DMSO is added to each well of cells, prepared as described above. 100 μl capsaicin in KRH buffer is automatically transferred by the FLIPR instrument to each well. Capsaicin-induced calcium mobilization is monitored using either FLUOROSKAN ASCENT (Labsystems; Franklin, Mass.) or FLIPR (fluorometric imaging plate reader system; Molecular Devices, Sunnyvale, Calif.) instruments. Data obtained between 30 and 60 seconds after agonist application are used to generate an 8-point concentration response curve, with final capsaicin concentrations of 1 nM to 3 μM. […] software (Synergy Software, Reading, Pa.) is used to fit the data to the equation: y=a*(1/(1+(b/x)^c)) to determine the 50% excitatory concentration (EC50) for the response. In this equation, y is the maximum fluorescence signal, x is the concentration of the agonist or antagonist (in this case, capsaicin), a is the Emax, b corresponds to the EC50 value and c is the Hill coefficient. Determination Agonist Activity
Test compounds are dissolved in DMSO, diluted in 20 μl KRH buffer so that the final concentration of test compounds in the assay well is between 1 μM and 5 μM, and added to cells prepared as described above. The 96 well plates containing prepared cells and test compounds are incubated in the dark, at room temperature for 0.5 to 6 hours. It is important that the incubation not continue beyond 6 hours. Just prior to determining the fluorescence response, 100 μl capsaicin in KRH buffer at twice the EC50 concentration determined as described above is automatically added by the FLIPR instrument to each well of the 96 well plate for a final sample volume of 200 μl and a final capsaicin concentration equal to the EC50. The final concentration of test compounds in the assay wells is between 1 μM and 5 μM.

human capsaicin receptor [2] = target: T1, human capsaicin receptor; experiment: Calcium mobilization assay, capsaicin agonist response (Example 6); assay type: cell-based; details: capsaicin positive control, cells expressing human capsaicin receptor; read-out: approximate EC90 concentration
Method: as §1, with “Plates are covered with aluminum foil and incubated at 37° C. for 1-2 hours in an environment containing 5% CO2. After the incubation, the dye is emptied from the plates, and the cells are washed once with KRH buffer, and resuspended in KRH buffer.” left out
To measure the ability of a test compound to agonize or antagonize a calcium mobilization response in cells expressing capsaicin receptors to capsaicin or other vanilloid agonist, the EC50 of the agonist capsaicin is first determined. […] Capsaicin-induced calcium mobilization is monitored using either FLUOROSKAN ASCENT (Labsystems; Franklin, Mass.) or FLIPR (fluorometric imaging plate reader system; Molecular Devices, Sunnyvale, Calif.) instruments. […] In this equation, y is the maximum fluorescence signal, x is the concentration of the agonist or antagonist (in this case, capsaicin), a is the Emax, b corresponds to the EC50 value and c is the Hill coefficient. […]

T1 sequence (Q8NER1 whole entry): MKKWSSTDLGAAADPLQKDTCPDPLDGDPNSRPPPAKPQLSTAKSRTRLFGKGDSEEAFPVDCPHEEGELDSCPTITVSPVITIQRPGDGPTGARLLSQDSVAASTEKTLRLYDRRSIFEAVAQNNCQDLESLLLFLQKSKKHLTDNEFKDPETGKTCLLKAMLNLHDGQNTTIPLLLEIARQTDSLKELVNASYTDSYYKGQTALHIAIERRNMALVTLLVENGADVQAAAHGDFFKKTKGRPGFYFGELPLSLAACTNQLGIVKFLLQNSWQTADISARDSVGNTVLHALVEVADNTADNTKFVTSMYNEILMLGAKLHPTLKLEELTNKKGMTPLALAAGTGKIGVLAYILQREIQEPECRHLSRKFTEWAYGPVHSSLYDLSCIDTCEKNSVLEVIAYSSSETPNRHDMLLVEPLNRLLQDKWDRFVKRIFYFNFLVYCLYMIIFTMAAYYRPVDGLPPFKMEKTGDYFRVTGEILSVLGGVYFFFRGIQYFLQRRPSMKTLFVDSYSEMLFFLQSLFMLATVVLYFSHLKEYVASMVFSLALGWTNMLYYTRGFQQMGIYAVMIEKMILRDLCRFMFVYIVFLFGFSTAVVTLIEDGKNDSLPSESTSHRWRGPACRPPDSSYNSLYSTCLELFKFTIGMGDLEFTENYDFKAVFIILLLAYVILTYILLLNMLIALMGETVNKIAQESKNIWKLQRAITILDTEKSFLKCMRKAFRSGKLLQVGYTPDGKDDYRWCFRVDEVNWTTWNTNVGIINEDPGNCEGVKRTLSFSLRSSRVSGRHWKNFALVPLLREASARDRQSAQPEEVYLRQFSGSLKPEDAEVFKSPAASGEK

Row | Structure (SMILES) | IC50 (human capsaicin receptor [1]) [µM] | EC90 (human capsaicin receptor [2]) [µM]
1 | FC(F)(F)c1ccc(Nc2nc(NC3CCCC3)nc(OCc3ccccc3C(F)(F)F)n2)cc1 [Compound 65, N-Cyclopentyl-6-(2-trifluoromethyl-benzyloxy)-N′-(4-trifluoromethyl-phenyl)-[1,3,5]triazine-2,4-diamine] | ≤ 1 | –
2 | CC(C)CNc1nc(Nc2ccc(C(F)(F)F)cc2)nc(OCc2ccccc2C(F)(F)F)n1 [Compound 66, N-Isobutyl-6-(2-trifluoromethyl-benzyloxy)-N′-(4-trifluoromethyl-phenyl)-[1,3,5]triazine-2,4-diamine] | ≤ 1 | –
3 | CC(C)Nc1nc(Nc2ccc(C(F)(F)F)cc2)nc(OCc2ccccc2C(F)(F)F)n1 [Compound 67, N-Isopropyl-6-(2-trifluoromethyl-benzyloxy)-N′-(4-trifluoromethyl-phenyl)-[1,3,5]triazine-2,4-diamine] | ≤ 1 | –
4 | CC(C)(C)Nc1nc(Nc2ccc(C(F)(F)F)cc2)nc(OCc2ccccc2C(F)(F)F)n1 [Compound 68, N-tert-Butyl-6-(2-trifluoromethyl-benzyloxy)-N′-(4-trifluoromethyl-phenyl)-[1,3,5]triazine-2,4-diamine] | ≤ 1 | –
5 | COc1cc(CNC(=O)CCCC/C=C/C(C)C)ccc1O [capsaicin] | – | ~0.1
